ChEMBL document CHEMBL1201862, “PubChem BioAssay data set” (2004)
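Method: 48-hour compound exposure of cells in 96-well plates, five concentrations, linear interpolation of endpoints. Here, GI50 denotes the concentration required for 50% inhibition of growth.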 Activity calls are given as the source filed them. Rule as the data show it: active = GI50 up to about 1.1 µM and inactive = higher.

Key:
Test in all cases: inhibition of tumour cell growth, NCI panel, 48 h
[1] = system: DMS-114
[2] = system: SK-MEL-5
[3] = system: NCI-H23
[4] = system: A549
[5] = system: SNB-78
[6] = system: IGROV-1
[7] = system: NCI-H522
[8] = system: K562
[9] = system: OVCAR-3
[10] = system: SK-MEL-28
[11] = system: KM-20L2
[12] = system: Malme-3M
[13] = system: HOP-18
[14] = system: SF-268
[15] = system: RXF 393
[16] = system: A498
[17] = system: OVCAR-5
[18] = system: LOX IMVI
[19] = system: HCT-116
[20] = system: NCI/ADR-RES
[21] = system: OVCAR-8
[22] = system: HCC 2998
[23] = system: SK-MEL-2
[24] = system: M19-MEL
[25] = system: HCT-15
[26] = system: HT-29
[27] = system: NCI-H226
[28] = system: CCRF-CEM
[29] = system: OVCAR-4
[30] = system: CAKI-1
[31] = system: UACC-62
[32] = system: UO-31
[33] = system: XF498
[34] = system: SNB-75
[35] = system: SW-620
[36] = system: SK-OV-3
[37] = system: HOP-62
[38] = system: SN12C
[39] = system: MCF7
[40] = system: NCI-H460
[41] = system: EKVX
[42] = system: HOP-92
[43] = system: UACC-257
[44] = system: RPMI-8226
[45] = system: SNB-19
[46] = system: U-251
[47] = system: DLD-1
[48] = system: SF-295
[49] = system: HL-60
[50] = system: COLO 205
[51] = system: SF-539
[52] = system: KM12
[53] = system: MOLT-4
[54] = system: DMS-273

Measured: GI50

Nc1ncnc2c1ncn2C1CCC(CO)O1 (centres undefined)
inactive: [1] > 55.6 µM | [2] > 100 µM | [3] > 66.7 µM | [4] > 100 µM | [5] > 100 µM | [6] > 100 µM | [7] > 100 µM | [8] > 100 µM | [9] > 100 µM | [10] > 63.2 µM | [11] > 100 µM | [12] > 100 µM | [13] > 100 µM | [14] > 60.5 µM | [15] > 100 µM | [16] > 85.1 µM | [17] > 100 µM | [18] > 100 µM | [19] > 100 µM | [20] > 77.4 µM | [21] > 79.4 µM | [22] > 77.4 µM | [23] > 100 µM | [24] > 100 µM | [26] > 61.1 µM | [27] > 67.9 µM | [28] > 100 µM | [29] > 82.8 µM | [30] > 100 µM | [31] > 100 µM | [32] > 100 µM | [33] > 90.8 µM | [34] > 100 µM | [35] > 100 µM | [36] > 77.6 µM | [37] > 100 µM | [38] > 100 µM | [39] > 100 µM | [40] > 100 µM | [41] > 87.3 µM | [42] > 79.8 µM | [43] > 100 µM | [44] > 100 µM | [45] > 100 µM | [46] > 100 µM | [47] > 100 µM | [48] > 79.4 µM | [49] > 100 µM | [50] > 100 µM | [51] > 100 µM | [52] > 100 µM | [53] > 100 µM | [54] > 100 µM
> 100 µM: [25]
